Measured values taken from US8263772B2, “MCH receptor antagonists” (Eli Lilly and Company, priority 2006, dated 2012).
Counter-ions that a name gives are not always drawn.

Legend:
[1] = test system: diet-induced obese male Long-Evans rats; test: In vivo efficacy: food intake and body weight change in diet-induced obese rats; set-up: species or system rat; conditions: 10 mg/Kg, oral gavage once a day for 3 days
Method: Vehicle consisted of 10% acacia and 0.15% saccharin in water.
House animals individually in a temperature regulated room (24° C.) with a reverse 12 hour light/dark cycle (dark 10:00/22:00). Make water and food (Teklad 95217, Harlan, Wis.) available ad libitum. Dose compounds orally once a day before onset of dark for 3 days. Measure daily food intake and body weight change for the 3 day period. The compound of Example 25 produces an average body weight reduction of about 6 grams@10 mg/Kg versus vehicle control.

[2] = target: T1, MCHR1 (Homo sapiens, UniProt Q99705); test: 125I-MCH competitive binding assay with clone 43 membranes (SPA); conditions: 125I-MCH binding, Ki from IC50 by Cheng-Prusoff
T1 construct: The full-length cDNA for human MCHR1 is cloned; expressed in transfected cells; host or cells: AV12 cells previously transfected with Gα15; membranes
Method: The full-length cDNA for human MCHR1 is cloned from a human adult brain cDNA library (Edge Biosystems, Cat. 38356) by standard polymerase chain reaction (PCR) methodology employing the following primers: sense, 5′-GCCACCATGGACCT GGAAGCCTCGCTGC-3′; anti-sense, 5′-[…]-3′. The PCR reaction is performed in a final volume of 50 μL containing 5 μL of a 10× stock solution of PCR buffer, 1 μL of 10 mM dNTP mixture (200 μM final), 2 μl of 50 mM Mg(SO4) (2 mM final), 0.5 μL of 20 μM solutions of each primer (0.2 μM final), 5 μL of template cDNA containing 0.5 ng DNA, 0.5 μL of Platinum Taq High Fidelity DNA polymerase (Gibco Life Technologies) and 36 μL of H2O. […]
In order to generate cell lines stably expressing MCHR1, subclone the insert into the Xba I and Not I sites of pcDNA(+)-3.1-neomycin (Invitrogen). […] The G418-resistant colonies are further selected for MCHR1 expression by measuring MCH-stimulated Ca^2+ transients with a fluorometric imaging plate reader (FLIPR, Molecular Devices). […]
Binding of compounds to MCHR1 is assessed in a competitive binding assay employing ^125I-MCH, compound and clone 43 membranes. […] Non-specific binding is assessed in the presence of 0.1 μM unlabeled MCH. Bound ^125I-MCH is determined by placing sealed plates in a Microbeta Trilux (Perkin Elmer Life and Analytical Sciences Inc.) and counting after a 12 h delay. […]

T1 sequence (Q99705 whole entry): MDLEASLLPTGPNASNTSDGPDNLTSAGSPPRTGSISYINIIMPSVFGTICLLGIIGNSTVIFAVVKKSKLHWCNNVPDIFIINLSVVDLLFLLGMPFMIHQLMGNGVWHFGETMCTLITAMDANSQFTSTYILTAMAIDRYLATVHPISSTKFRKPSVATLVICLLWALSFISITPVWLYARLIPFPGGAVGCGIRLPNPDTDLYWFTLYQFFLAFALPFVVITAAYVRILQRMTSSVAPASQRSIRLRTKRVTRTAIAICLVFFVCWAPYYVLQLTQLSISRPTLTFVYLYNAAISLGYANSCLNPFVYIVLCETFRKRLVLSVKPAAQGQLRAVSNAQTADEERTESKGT

| Ki [2] [nM] | Structure (SMILES) | average body weight reduction versus vehicle control [1] |
| --- | --- | --- |
| – | COc1cc(N2CCc3cc(-c4ccc(Cl)cc4)sc3C2=O)ccc1NC(=O)CN1CCCC1.Cl [Example 25, N-{4-[2-(4-Chloro-phenyl)-7-oxo-4,7-dihydro-5H-thieno[2,3-c]pyridin-6-yl]-2-methoxy-phenyl}-2-pyrrolidin-1-yl-acetamide hydrochloride] | about 6 grams |
| ~3 | O=C(CN1CCCC1)Nc1ccc(-n2ccc3cc(-c4ccc(Cl)cc4)sc3c2=O)cc1 [Example 58, N-{4-[2-(4-Chloro-phenyl)-7-oxo-7H-thieno[2,3-c]pyridin-6-yl]-phenyl}-2-pyrrolidin-1-yl-acetamide, hydrochloride] | – |
